The values below come from article PMC4341462, “Human RNASET2 derivatives as potential anti-angiogenic agents: actin binding sequence identification and characterization” (Oncoscience, 2014).

For assay [1], the target named is T1, Actin from rabbit muscle (Sigma A2522) (Oryctolagus cuniculus, UniProt P68135).
T1 construct: purchased Sigma A2522; host or cells: rabbit muscle (tissue-purified)
The experiment in a line: Surface plasmon resonance (BIAcore 3000) of actin binding. As to conditions: actin on CM5 chip, amine coupling, 5 concentrations, 10 μl/min, 25°C. The procedure:
SPR was performed on a BIAcore 3000 instrument (BIAcore, Uppsala, Sweden). Actin was diluted in 100 mM CH3COONa pH 4.6 to a final concentration of 20μg/ml (200μl total) resulting in ~1ng immobilized actin on a CM5 BIAcore sensor chip (GE Healthcare Bio-Sciences AB) using the standard BIAcore amine coupling chemistry protocol. The CM5 chip allows four separate flow cells to be operated in the BIAcore 3000 instrument used in these experiments. Coupling is achieved by activating the surface of the sensor chips with equal volumes of 50 mM N-hydroxysuccimide (NHS)/200 mM Nethyl-N-(3-[…])-carboiimide (EDC) (BIAcore, AB, Uppsala, Sweden) to form activated carboxyl groups. In the BIAcore protocol the binding is believed to be between carboxyl groups on the surface and amine groups on the protein. The actin solution (15 μg/ml) was then run over the chip for 5 min at a rate of 10 μl/min, where the amine groups on protein react with the activated esters. In the final stage of immobilization, the surface was blocked by 1M ethanol amine, pH 8.0. The binding assay was performed by injecting the hRNASET2, trT2-50, trT2-50m or peptides solutions in running buffer (HBS-10mM Hepes, 150mM Sodium Chloride, 3mM EDTA, 0.005% Polysorbate 20) at 5 different concentrations at a flow rate of 10 μl/min at 25°C. Injections were performed simultaneously over all four channels and blank surface a plain dextran matrix (channel 1) was used as control. The net signal was obtained by subtracting the blank signal from the signal of the immobilized surface. The association phase for protein or peptides binding to actin was followed for 4 min, and dissociation phases were monitored for 3 min. Surface regeneration between consecutive binding cycles included a 1 min injection of 1 mM NaOH. The response was monitored as a function of time (sensorgram) at 25°C. Multi-concentration data were globally fit using BIA evaluation 3.2 software.
The strength of a two molecule interaction is characterized by the equilibrium dissociation (binding) constant KD =[P][L]/[PL], where [P] is the concentration of free protein (or peptide), [L] the concentration of ligand and [PL] the concentration of the complex. At equilibrium, KD is related to the rate of complex formation (described by the association rate constant, ka) and the rate of breakdown (described by the dissociation rate constant, kd ), such that KD =[…]. A high affinity interaction is characterized by a low KD, rapid recognition and binding by high ka, and stability of complex formation by low kd.
A general note: In SPR one partner is held on a chip, and binding of the other changes the refractive index at the surface.

The next assay has as its target actin (Oryctolagus cuniculus, UniProt P68135). The experiment in a line: Actin binding solid phase assay (ELISA). As to conditions: from 500 ng/well, 1 h at 37°C, discussion also refers to BIAcore. The text has this: For further insight on the actin binding site within the hRNASET2 protein sequence we tested 29 suspected peptides for their ability to bind actin. The actin-binding capability of the 29 synthetic peptides was compared to the binding capability of trT2-50 using a solid phase actin binding assay. […] We next tested the interaction kinetics to evaluate the interaction nature as described for trT2-50 and trT2-50m. […] In addition, there is a linear relation between the protein concentration and the maximal (steady-state) response for peptides A103-Q159 and K108-K133, indicating the pseudo-first-order regime in relation to the immobilized actin.
96-well plates (MaxiSorp® flat-bottom 96-well plate, Fisher Scientific Inc., Fair Lawn, NJ) were coated with 500 ng actin in 100 μl carbonate-bicarbonate buffer (pH 9.5) for 1 h at 37°C. The plate was washed once with TBS and then blocked with 3% BSA in 200 μl TBS buffer at 37°C, for 1 h. Wells were then washed once with 250 μl TBS. trT2-50, trT2-50m or each of the 29 peptides were added at 1:2 dilutions in 100 μl TBS, starting from 500 ng/well, incubated for 1 h at 37°C and then washed three times with TBS containing 0.1% Tween-20 (TBST). […] Absorbance at 655 nm was measured 10 min thereafter using a Power Wave 200 Microplate Scanning Spectrophotometer (Bio-Tek Instrument, Winooski, VT). Affinity was evaluated by double reciprocal plot.

Assay [2] relates to HUVEC (angiogenin-induced tube formation). The experiment in a line: HUVEC tube formation assay on Matrigel, angiogenin-induced. It counts as cell-based, human. The note with it: 2 μM, angiogenin 1 μg/ml, 8 h, vs PBS control, N=5. The procedure: (§1) Figure 4 trT2-50m and peptides A103-Q159 (57aa) and K108-K133 (26aa) inhibit angiogenin- and VEGF-induced HUVEC tube formation on Matrigel Freshly isolated HUVECs were plated in a 96-well plate previously coated with Matrigel. (A): Cells were treated with either peptide A103-Q159, K108-K133 or K108-L123 (2μM) or PBS (control), in addition to angiogenin or VEGF (1 μg/ml). (B): tube formation was assessed using Image J, the results are represented as percent of control. […] (C): Cells were treated with trT2-50m (2μM) or PBS (control), in addition to angiogenin or VEGF (1 μg/ml).
(§2) Freshly isolated HUVEC were maintained in endothelial cell growth medium (EGM) supplemented with SingleQuots (EGM BulletKit CC-3124, Lonza). They were then plated in a 96-well plates (14 × 10^3 cells/well) previously coated with growth factor-depleted Matrigel (Becton-Dickinson, Bedford, MA) in M199 medium supplemented with 20% FBS, 1% glutamine, 1% antibiotic–antimycotic solution (Biological Industries) and 50 U/100 ml heparin (Biomedical Technologies Inc., Stoughton, MA). Cells were treated with trT2-50m (2 μM), peptides or PBS, in addition to angiogenin (R&D Systems, Inc. Minneapolis, MN), or VEGF (Protein Laboratories, Rehovot, Israel) (1 μg/ml each). After 8 h of incubation at 37°C, the plates were photographed and the extent of tube formation was counted using Image J (NIH, Bethesda, MD) software. […]

The subject of assay [3] is HUVEC (VEGF-induced tube formation). The experiment in a line: HUVEC tube formation assay on Matrigel, VEGF-induced. It counts as cell-based, human. As to conditions: 2 μM, VEGF 1 μg/ml, 8 h, vs PBS control, N=5. The procedure:
as §1, §2

The subject of another assay is HUVECs. Put plainly: Immunofluorescence: localization and co-localization of peptide and angiogenin in HUVECs. As to conditions: anti-angiogenin (red). It counts as cell-based, human. The procedure: Cells were cultured on PBS-covered slides in 12-well plates with 0.1% pork gelatin (Sigma-Aldrich) and were incubated with peptide K108-K133 or angiogenin. Cells were fixed with 3% Paraformaldehyde (PFA) (Merck Millipore, Dermstadt, Germany) containing 0.5% triton, washed three times with PBS and blocked with 5% donkey serum (Jackson ImmunoResearch). Rabbit anti-angiogenin (Merck Millipore) was added (1:100 dilution; prepared in 5% donkey serum) and incubated overnight at 4°C. After washing three times with TBST, the slides were incubated for 1 h with Alexa 488-conjugated anti-rabbit antibody (Invitrogen Life Technologies) and phalloidin tetramethylrhodamine B isothiocyanate–conjugated […] (Sigma-Aldrich), and then washed, and mounted with a mixture containing 30% mounting medium, 4′,6-diamidino-2-phenylindole (DAPI) (Santa Cruz Biotechnology Inc., Santa Cruz, CA) and 70% fluoromount (Sigma-Aldrich). The slides were viewed under a Leicactr4000 laser scanning confocal microscope.

The subject of another assay is CAM. Put plainly: Ex ovo CAM angiogenesis assay. It counts as in vivo, chicken. The note with it: 3 μg on filter paper disk every day for 4 days from day 8, vs PBS; N=3 for hRNASET2 and trT2-50, N=5 for peptides and PBS. The procedure:
In this assay we used fertilized eggs cracked into a petri dish after […] of incubation in 37°C and 60% humidity. In the following days, the embryos developed a vascular network. Treatment began on the eighth day of incubation and was delivered drop-wise onto disks of Whatman paper that had been placed on the developing vascular regions. The treatment was performed every day for 4 days. The number of blood vessels around the treated disk was counted every day.
Fertilized chicken eggs were incubated horizontally at 37°C and humidity of 60 - 62% and cracked into Petri dishes at embryonic day 4. Incubation was continued under the same conditions. On day 8, sterile filter paper disks (5.5 mm in diameter) were layered on top of the CAM and soaked either with 5 μl PBS or 3 μg hRNASET2, trT2-50, peptide A103-Q159 or peptide K108-K133. Treatment was given every day for four days, then, the number of blood vessels around the treated disks was counted. (For hRNASET2 and trT2-50, N=3; for peptide A103-Q159, peptide K108-K133 and PBS, N=5).

The term Kd denotes a measure of binding affinity in units of concentration.

In the case of `CC[C@H](C)[C@H](NC(=O)CNC(=O)[C@H](CC(C)C)NC(=O)[C@H](CCCCN)NC(=O)[C@H](CC(C)C)NC(=O)[C@H](CC(C)C)NC(=O)[C@@H](NC(=O)[C@H](CO)NC(=O)[C@H](CC(N)=O)NC(=O)[C@H](CC(C)C)NC(=O)[C@H](CC(=O)O)NC(=O)[C@H](CC(C)C)NC(=O)[C@H](CCC(=O)O)NC(=O)[C@H](CCCNC(=N)N)NC(=O)[C@H](Cc1ccc(O)cc1)NC(=O)[C@H](CC(C)C)NC(=O)[C@H](CCC(=O)O)NC(=O)[C@H](CC(C)C)NC(=O)[C@H](CO)NC(=O)[C@H](CCCNC(=N)N)NC(=O)CNC(=O)[C@H](Cc1ccccc1)NC(=O)[C@H](Cc1ccc(O)cc1)NC(=O)[C@H](CCCCN)NC(=O)[C@@H](N)CCCCN)C(C)C)C(=O)N[C@@H](CCCCN)C(=O)O` [Peptide K108-K133], the kon in assay [1] (HBS (10mM Hepes, 150mM NaCl, 3mM EDTA, 0.005% Polysorbate 20), association 4 min, dissociation 3 min, global fit BIAevaluation 3.2, read-out: association rate Ka) was determined as 14200 M⁻¹ s⁻¹. Besides, the koff in assay [1] (HBS (10mM Hepes, 150mM NaCl, 3mM EDTA, 0.005% Polysorbate 20), dissociation 3 min, global fit BIAevaluation 3.2, read-out: dissociation rate Kd) turned out to be 0.0458 s⁻¹.
With “Peptide K108-L123: peptide K108-L123 (16 aa) that failed to bind actin”, in the assay with actin, the “ability to bind actin (in words)” value was “failed to bind actin”. Further, the “inhibition of angiogenin-induced tube formation (in words)” value in assay [2] is “unable to inhibit tube formation”. For the same molecule, the “inhibition of VEGF-induced tube formation (in words)” value in assay [3] was “unable to inhibit tube formation”.
Take “angiogenin: angiogenin (R&D Systems, Inc. Minneapolis, MN)”: the “localization of angiogenin in presence of peptide K108-K133” value was “Same angiogenin localization was observed after 2 and 8 h” in the assay on HUVECs (2 and 8 h of incubation with the peptide and angiogenin); “located in the nucleus, the cytoplasm surrounding the nucleus, on the actin fibers and outside the cell” in the assay on HUVECs (10 min of incubation with the peptide and angiogenin).
“hRNASET2: full-length human RNASET2, produced in CHO, T2BIOTECH Ltd”: the “association rate Ka” value in assay [1] (HBS (10mM Hepes, 150mM NaCl, 3mM EDTA, 0.005% Polysorbate 20), association 4 min, dissociation 3 min, global fit BIAevaluation 3.2) is on record as 2.40 × 10^3 (1/Ms). In assay [1] (HBS (10mM Hepes, 150mM NaCl, 3mM EDTA, 0.005% Polysorbate 20), dissociation 3 min, global fit BIAevaluation 3.2), the “dissociation rate Kd” value was 0.00346 s⁻¹. The Kd in assay [1] (HBS, determined from kinetic analyses, BIAevaluation 3.2, read-out: dissociation constant KD) is 1440 nM. In the assay with CAM, the “blood vessels around the treated disk” value is recorded as “fewer blood vessels developed compared to the control”.
